In ChEMBL document CHEMBL1201862, “PubChem BioAssay data set” (2004):
Active and inactive are the calls of the source.

Assays:
[1] = Vero cell cytotoxicity, cytotoxicity control for M. tuberculosis inhibitor project, purified and synthesized samples, set 3 (AID 504684); assay type: functional
[2] = target: Ras and Rab interactor 1/Tyrosine-protein kinase ABL1 (Homo sapiens, UniProt P00519+Q13671); assay type: functional;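 further: biochemical TR-FRET dose-response test measuring inhibition of binding between Rin1 and Abl proteins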
[3] = cytotoxicity toward MDA-MB-231 breast cancer cells – cell-based, CellTiter-Glo luminescence, cherry-pick, cytotoxicity control for RAD54 inhibitor project, dose response (AID 651692); assay type: functional
[4] = target: T1, Microphthalmia-associated transcription factor (Homo sapiens, UniProt O75030); assay: reducers of TRPM1 reporter luminescence, concentration series – cell-based, SK-MEL-5, cherry-picked, set 3, MITF inhibitor project, dose response (AID 493073); assay type: functional;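 further: SK-MEL-5 melanoma cells with luciferase driven by the MITF target TRPM1 promoter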
T1 sequence (O75030 whole entry): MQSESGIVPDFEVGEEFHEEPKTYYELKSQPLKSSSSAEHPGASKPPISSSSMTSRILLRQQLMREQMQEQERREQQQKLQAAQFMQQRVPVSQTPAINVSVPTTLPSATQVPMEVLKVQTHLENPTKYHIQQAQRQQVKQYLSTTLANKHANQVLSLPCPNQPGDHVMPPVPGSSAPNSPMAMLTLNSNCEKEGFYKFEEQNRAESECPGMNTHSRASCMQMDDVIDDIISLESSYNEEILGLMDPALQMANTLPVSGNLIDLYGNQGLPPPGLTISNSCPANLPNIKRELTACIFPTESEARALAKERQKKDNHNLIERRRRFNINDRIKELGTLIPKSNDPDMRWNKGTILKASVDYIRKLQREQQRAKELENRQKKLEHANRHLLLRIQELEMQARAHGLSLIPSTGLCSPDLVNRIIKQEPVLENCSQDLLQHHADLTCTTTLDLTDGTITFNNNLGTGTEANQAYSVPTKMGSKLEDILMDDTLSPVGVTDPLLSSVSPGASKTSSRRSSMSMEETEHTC

Nonstructural protein 1 = Nonstructural protein 1 (Influenza A virus, UniProt Q194T2); assay type: functional, Influenza A virus (A/California/07/2009(H1N1))
[5] = target: T2, DNA repair protein RAD52 homolog (Homo sapiens, UniProt P43351); assay type: functional, biochemical
T2 sequence (P43351 whole entry): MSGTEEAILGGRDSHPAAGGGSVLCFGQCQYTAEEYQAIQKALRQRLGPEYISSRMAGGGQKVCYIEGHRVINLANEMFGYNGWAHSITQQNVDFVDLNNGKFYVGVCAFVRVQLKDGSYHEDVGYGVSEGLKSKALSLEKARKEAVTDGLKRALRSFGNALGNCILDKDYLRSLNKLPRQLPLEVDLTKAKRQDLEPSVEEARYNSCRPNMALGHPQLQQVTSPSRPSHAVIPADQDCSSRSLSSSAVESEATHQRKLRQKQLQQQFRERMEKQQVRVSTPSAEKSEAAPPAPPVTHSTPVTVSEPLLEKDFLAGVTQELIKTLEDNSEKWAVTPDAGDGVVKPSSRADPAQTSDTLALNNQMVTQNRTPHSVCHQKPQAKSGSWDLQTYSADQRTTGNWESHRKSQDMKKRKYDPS

[6] = target: T3, DNA repair and recombination protein RAD54-like (Homo sapiens, UniProt Q92698); assay: RAD54 Holliday junction migration blockers – biochemical, fluorescence, cherry-picked samples, dose series, confirmation (AID 651657); assay type: functional
T3 sequence (Q92698 whole entry): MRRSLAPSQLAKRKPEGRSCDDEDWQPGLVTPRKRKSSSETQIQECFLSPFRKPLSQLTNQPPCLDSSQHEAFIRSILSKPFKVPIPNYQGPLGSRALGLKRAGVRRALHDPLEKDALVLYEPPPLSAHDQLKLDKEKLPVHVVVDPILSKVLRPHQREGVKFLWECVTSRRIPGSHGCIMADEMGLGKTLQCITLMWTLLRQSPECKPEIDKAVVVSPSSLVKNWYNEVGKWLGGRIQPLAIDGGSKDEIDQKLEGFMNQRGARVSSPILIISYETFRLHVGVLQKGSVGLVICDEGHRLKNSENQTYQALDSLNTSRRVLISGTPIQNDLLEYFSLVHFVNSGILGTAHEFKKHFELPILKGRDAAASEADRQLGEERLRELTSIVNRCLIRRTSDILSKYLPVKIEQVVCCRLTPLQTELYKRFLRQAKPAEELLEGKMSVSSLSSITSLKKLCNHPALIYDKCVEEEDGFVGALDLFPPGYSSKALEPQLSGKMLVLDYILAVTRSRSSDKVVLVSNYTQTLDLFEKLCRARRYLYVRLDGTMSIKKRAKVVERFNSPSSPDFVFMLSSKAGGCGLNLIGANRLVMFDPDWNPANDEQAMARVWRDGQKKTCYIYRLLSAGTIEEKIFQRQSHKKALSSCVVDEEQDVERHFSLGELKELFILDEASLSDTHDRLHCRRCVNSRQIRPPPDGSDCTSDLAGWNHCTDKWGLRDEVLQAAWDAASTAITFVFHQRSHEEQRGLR

[7] = A Cell Based Secondary Assay To Explore Cytotoxicity of Compounds that Sensitize Mycobacterium Tuberculosis to Beta-Lactam Antibiotics.; assay type: functional
[8] = target: ADP-ribosylation factor GTPase-activating protein 1 (Rattus norvegicus, UniProt Q62848); assay: Fluorescence polarization-based biochemical high throughput dose response screening assay to identify inhibitors of ADP-ribosylation factor GTPase activating protein 1 (ARFGAP1).; assay type: functional
Cytochrome P450 2D6 = Cytochrome P450 2D6 (Homo sapiens, UniProt P10635);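 further: CYP2D6 member of a cytochrome P450 panel assay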
HEK293 [9] = assay: membrane integrity loss in HEK cells – cell-based, fluorescence, cytotoxicity control for IDE activator project, dose response (AID 588440); assay type: functional; settings: Homo sapiens;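 further: cytotoxicity by LDH release measuring loss of membrane integrity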
Insulin-degrading enzyme [10] = target: T4, Insulin-degrading enzyme (Homo sapiens, UniProt P14735); assay: cellular IDE activation of Abeta substrate cleavage – fluorescence polarization, HEK cells, dose response (AID 588439); assay type: functional, cell-based
T4 sequence (P14735 whole entry): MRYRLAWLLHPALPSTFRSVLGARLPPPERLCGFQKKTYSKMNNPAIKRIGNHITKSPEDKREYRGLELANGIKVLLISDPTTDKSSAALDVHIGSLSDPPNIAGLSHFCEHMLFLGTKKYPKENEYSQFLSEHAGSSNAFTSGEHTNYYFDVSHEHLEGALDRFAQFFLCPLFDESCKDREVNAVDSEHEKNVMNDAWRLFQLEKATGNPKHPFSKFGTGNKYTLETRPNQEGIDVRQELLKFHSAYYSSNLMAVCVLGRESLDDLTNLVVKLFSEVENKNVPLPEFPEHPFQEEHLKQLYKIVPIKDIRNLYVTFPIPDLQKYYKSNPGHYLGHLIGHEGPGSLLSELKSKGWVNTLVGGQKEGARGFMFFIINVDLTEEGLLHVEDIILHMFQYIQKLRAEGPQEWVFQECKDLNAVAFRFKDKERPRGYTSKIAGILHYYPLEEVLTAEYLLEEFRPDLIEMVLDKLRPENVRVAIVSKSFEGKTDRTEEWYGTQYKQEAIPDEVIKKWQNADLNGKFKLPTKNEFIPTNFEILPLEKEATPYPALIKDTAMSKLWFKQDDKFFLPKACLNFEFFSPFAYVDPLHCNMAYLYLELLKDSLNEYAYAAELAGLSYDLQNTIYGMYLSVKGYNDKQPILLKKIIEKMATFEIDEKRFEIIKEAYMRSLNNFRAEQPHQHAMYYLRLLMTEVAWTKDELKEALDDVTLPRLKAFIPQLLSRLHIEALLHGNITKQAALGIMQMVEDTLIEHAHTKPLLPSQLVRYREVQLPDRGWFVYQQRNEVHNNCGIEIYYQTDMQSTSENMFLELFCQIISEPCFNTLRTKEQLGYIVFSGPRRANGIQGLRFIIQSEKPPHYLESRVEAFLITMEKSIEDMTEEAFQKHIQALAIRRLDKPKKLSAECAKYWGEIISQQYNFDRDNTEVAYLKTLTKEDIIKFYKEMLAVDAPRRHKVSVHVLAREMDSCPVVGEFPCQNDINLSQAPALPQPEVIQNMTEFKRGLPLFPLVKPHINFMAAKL

Cytochrome P450 3A4 = Cytochrome P450 3A4 (Homo sapiens, UniProt P08684);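 further: CYP3A4 tested as one member of a cytochrome P450 panel screen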
HEK293 [11] = assay: optical interference in Abeta FP readout, dose response, artefact control for IDE activator project, biochemical, fluorescence polarization (AID 588442); assay type: functional, cell-based; settings: Homo sapiens
Cytochrome P450 2C9 = Cytochrome P450 2C9 (Homo sapiens, UniProt P11712)
Insulin-degrading enzyme [12] = target: T4, Insulin-degrading enzyme; assay: recombinant IDE activation, cell-free – biochemical, fluorescence polarization, counter-screen for IDE activator project, dose response (AID 588681)
[13] = target: Low molecular weight phosphotyrosine protein phosphatase (Homo sapiens, UniProt P24666); assay type: functional; settings: read-out: IC50_Mean;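 further: Dose-response confirmation assay measuring inhibition of LMPTP enzyme activity by fluorescence intensity read-out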
[14] = target: T5, ATP-dependent translocase ABCB1 (Homo sapiens, UniProt P08183); assay: P-gp JC-1 efflux blockade concentration-response – Jurkat-DNR cells, flow cytometry, set 2, dose response (AID 504569); assay type: functional; settings: read-out: EC50_MICROM_;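 further: potency of pump inhibitors that raise cellular JC-1 green fluorescence up to the nicardipine level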
[15] = target: T5, ATP-dependent translocase ABCB1; assay: inhibition of BCRP-mediated JC-1 efflux – Ig-MXP3 cells, flow cytometry, set 2, dose response (AID 504566); assay type: functional; settings: read-out: EC50_MICROM_;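 further: flow cytometry median green fluorescence of retained JC-1 dye; potency of efflux pump inhibition measured as rising substrate retention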
[16] = target: Luciferin 4-monooxygenase (Photinus pyralis, UniProt P08659); assay: inhibition of purified Photinus pyralis luciferase – biochemical, luminescence, dose response (AID 1891)
[17] = inhibition of ARNT PAS-B/TACC3 complex formation – biochemical, AlphaScreen, cherry-picked samples, confirmation (AID 651703); assay type: functional, Homo sapiens;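 further: His-tagged ARNT PAS-B domain paired with GST-TACC3 E629A dimer coactivator fragment; potency of inhibitors that break up the complex and lower AlphaScreen signal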
[18] = Luminescence Cell-Based Dose Confirmation HTS to Identify Inhibitors of Platelet Dense Granule Release. [Related pubchem assays: 1663 (Primary HTS), 1678 (Summary of Project)]; assay type: functional

T5 sequence (P08183 whole entry): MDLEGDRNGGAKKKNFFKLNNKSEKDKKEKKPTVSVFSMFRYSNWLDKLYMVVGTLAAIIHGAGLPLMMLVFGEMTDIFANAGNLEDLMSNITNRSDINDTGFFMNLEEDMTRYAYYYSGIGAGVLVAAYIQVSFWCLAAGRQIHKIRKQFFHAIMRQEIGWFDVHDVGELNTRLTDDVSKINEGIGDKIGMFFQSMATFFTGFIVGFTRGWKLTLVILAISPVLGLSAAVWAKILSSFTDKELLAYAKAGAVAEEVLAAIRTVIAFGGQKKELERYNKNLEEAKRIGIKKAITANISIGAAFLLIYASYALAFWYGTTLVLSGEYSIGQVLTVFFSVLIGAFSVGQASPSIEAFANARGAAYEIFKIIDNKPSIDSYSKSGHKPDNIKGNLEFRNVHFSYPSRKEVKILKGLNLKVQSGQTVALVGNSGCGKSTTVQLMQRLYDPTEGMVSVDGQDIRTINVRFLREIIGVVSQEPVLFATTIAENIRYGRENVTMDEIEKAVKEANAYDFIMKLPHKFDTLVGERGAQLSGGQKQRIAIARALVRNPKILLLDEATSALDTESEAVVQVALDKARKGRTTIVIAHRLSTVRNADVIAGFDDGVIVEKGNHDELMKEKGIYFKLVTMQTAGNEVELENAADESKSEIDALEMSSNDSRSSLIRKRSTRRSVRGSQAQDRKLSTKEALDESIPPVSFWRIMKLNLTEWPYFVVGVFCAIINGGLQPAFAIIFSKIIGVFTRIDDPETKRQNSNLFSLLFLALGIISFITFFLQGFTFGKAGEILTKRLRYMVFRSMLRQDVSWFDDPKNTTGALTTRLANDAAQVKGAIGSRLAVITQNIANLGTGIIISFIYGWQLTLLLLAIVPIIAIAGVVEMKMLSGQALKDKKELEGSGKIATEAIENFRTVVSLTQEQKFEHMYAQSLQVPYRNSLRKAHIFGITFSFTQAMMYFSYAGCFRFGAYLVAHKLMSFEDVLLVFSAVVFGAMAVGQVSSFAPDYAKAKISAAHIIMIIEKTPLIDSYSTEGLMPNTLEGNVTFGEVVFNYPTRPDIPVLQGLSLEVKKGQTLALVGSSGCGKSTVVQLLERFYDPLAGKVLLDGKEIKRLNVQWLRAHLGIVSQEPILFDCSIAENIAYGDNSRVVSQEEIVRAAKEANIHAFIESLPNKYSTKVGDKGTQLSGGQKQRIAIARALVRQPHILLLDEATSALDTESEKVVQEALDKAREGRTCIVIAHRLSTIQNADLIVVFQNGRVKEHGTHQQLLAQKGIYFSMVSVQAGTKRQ
Luciferin 4-monooxygenase, sequence (P08659 whole entry, the tested form may be a part): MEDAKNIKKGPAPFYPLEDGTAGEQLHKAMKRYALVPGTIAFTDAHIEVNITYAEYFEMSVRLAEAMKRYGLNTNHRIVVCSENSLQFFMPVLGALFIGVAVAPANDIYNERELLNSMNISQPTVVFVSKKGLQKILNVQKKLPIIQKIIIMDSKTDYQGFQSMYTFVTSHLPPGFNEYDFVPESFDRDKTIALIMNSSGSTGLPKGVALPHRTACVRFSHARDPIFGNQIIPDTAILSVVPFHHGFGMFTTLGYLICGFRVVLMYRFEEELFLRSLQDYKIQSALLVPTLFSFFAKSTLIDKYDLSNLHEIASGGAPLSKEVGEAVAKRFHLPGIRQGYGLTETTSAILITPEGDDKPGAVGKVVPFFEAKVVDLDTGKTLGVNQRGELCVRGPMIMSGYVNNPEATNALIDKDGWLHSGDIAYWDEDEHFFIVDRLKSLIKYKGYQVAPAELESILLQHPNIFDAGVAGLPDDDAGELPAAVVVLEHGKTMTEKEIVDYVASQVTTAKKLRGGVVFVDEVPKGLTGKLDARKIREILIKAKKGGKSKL
Ras and Rab interactor 1/Tyrosine-protein kinase ABL1, sequence (P00519 whole entry): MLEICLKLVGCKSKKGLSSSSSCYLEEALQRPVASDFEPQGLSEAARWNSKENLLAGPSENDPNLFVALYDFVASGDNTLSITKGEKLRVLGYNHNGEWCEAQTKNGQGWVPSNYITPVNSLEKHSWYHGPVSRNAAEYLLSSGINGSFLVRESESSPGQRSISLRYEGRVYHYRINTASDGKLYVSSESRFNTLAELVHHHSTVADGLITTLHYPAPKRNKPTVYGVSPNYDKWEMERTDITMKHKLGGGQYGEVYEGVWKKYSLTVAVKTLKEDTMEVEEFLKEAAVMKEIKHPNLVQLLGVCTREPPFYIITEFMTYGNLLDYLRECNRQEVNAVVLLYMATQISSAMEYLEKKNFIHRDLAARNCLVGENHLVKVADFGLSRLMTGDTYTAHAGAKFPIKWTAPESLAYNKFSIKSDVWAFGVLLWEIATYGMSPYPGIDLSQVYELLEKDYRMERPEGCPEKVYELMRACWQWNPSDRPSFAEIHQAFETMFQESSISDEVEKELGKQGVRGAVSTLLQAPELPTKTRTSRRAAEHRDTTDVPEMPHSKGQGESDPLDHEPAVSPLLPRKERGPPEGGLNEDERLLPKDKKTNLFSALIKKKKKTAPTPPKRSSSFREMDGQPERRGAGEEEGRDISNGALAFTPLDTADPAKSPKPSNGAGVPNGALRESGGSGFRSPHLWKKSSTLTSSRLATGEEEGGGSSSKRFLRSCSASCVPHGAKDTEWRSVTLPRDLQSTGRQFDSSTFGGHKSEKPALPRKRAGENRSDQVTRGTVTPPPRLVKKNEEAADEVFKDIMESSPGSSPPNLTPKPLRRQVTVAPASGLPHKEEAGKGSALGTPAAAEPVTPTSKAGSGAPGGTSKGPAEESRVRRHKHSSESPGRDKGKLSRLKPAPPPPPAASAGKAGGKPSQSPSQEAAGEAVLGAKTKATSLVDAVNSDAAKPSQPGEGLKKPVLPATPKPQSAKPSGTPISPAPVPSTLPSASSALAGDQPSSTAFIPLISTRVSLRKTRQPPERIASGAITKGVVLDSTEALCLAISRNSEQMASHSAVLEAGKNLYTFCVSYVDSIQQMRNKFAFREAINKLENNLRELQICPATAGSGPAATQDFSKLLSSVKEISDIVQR
Ras and Rab interactor 1/Tyrosine-protein kinase ABL1, sequence (Q13671 whole entry): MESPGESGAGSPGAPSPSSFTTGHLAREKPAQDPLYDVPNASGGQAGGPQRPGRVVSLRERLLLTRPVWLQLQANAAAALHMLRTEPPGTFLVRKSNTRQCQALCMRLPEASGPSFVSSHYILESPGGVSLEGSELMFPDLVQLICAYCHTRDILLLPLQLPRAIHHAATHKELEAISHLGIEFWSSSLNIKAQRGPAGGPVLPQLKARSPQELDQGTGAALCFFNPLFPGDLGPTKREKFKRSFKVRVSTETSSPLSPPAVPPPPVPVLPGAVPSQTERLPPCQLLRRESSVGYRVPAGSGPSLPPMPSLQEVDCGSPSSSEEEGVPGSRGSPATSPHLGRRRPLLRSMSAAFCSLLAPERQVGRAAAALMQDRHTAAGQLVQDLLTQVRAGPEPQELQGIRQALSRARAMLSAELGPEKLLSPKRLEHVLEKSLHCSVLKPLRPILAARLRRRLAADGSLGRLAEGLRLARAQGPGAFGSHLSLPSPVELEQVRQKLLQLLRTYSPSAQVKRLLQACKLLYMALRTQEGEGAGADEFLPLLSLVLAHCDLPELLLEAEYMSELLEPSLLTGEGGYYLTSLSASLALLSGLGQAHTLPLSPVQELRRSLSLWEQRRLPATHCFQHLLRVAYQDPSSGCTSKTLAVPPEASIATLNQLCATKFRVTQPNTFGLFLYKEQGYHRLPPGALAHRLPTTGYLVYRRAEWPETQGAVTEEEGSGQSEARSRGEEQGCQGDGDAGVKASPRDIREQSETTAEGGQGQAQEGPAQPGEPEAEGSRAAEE
ADP-ribosylation factor GTPase-activating protein 1, sequence (Q62848 whole entry): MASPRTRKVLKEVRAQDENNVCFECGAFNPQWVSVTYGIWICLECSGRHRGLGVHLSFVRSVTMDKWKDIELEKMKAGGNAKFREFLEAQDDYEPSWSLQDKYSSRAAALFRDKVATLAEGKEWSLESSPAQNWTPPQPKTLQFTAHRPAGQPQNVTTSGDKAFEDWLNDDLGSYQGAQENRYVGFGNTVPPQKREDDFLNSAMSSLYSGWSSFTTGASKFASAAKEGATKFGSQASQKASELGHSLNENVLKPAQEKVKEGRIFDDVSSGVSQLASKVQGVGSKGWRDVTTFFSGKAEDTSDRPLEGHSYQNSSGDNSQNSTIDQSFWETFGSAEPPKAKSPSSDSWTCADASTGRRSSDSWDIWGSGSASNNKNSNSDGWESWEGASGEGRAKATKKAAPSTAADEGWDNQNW
Low molecular weight phosphotyrosine protein phosphatase, sequence (P24666 whole entry): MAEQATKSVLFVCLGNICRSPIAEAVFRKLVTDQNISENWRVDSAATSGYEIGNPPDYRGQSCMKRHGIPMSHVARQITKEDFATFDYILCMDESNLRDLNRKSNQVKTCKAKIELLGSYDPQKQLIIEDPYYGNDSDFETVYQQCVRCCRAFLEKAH
Cytochrome P450 2D6, sequence (P10635 whole entry): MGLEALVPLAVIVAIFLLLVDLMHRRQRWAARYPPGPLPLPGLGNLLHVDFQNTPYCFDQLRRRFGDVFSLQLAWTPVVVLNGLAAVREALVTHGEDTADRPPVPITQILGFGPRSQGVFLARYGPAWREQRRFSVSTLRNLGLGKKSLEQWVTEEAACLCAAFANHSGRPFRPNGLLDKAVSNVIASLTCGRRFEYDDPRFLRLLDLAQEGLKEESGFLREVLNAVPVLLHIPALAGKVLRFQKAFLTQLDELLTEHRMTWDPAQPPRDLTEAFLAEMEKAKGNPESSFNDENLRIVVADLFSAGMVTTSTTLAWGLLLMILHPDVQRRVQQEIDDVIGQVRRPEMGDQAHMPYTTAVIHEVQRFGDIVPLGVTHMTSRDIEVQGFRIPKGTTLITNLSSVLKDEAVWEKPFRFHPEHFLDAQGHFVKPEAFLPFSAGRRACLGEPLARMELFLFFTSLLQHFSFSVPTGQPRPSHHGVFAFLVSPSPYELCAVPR
Nonstructural protein 1, sequence (Q194T2 whole entry): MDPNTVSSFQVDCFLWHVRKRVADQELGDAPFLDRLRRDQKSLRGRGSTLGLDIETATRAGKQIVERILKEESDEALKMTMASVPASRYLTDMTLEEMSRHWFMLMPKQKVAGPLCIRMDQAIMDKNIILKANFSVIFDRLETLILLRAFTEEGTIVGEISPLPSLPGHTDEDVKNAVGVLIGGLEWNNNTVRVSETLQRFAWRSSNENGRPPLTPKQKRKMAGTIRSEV

With `O=c1[nH]c(S)nc2ccccc12` the CC50 [1] was > 100 µM (active).
In the case of `CCOC(=O)c1ccc(NC(=O)COc2ccccc2CNC2CCCC2)cc1`, the IC50 [2] is reported as 12.2 µM (inactive).
For `CCN1CCCC1CNC(=O)c1ccc2c(c1)NC(=O)/C(=C\c1ccc(OC)c(OC)c1)S2` (stereo unspecified), the AC50 [3] was 36.4 µM (active), the AC50 [4] was 13.8 µM (active) and the IC50 (Nonstructural protein 1) was 81.9 µM (active). The AC50 [5] was 3.24 µM (active) and the AC50 [6] was 12.6 µM (active).
In the case of `Cc1cccc(NC(=O)Cn2cnc3c(oc4ccccc43)c2=O)c1C`, the CC50 [7] is reported as > 40 µM (active) and the IC50 [8] is reported as 28.7 µM (inactive).
For `CCCCn1nc2cc(C(=O)NCCCCc3ccccc3)ccc2c1OCC`, the AC50 (Cytochrome P450 2D6) was 3.98 µM (inconclusive), the IC50 (HEK293 [9]) was > 89.2 µM (inactive) and the EC50 (Insulin-degrading enzyme [10]) was 22.8 µM (inactive). The AC50 (Cytochrome P450 3A4) was 6.31 µM (inconclusive), the EC50 (HEK293 [11]) was > 54.7 µM (inactive) and the AC50 (Cytochrome P450 2C9) was 31.6 µM (inconclusive). For the same compound, the EC50 (Insulin-degrading enzyme [12]) was > 54.7 µM (inactive).
For `O=C(COc1ccccc1)Nc1sc2c(c1C(=O)NCc1cccnc1)CCCC2`, the IC50 [13] was 21.3 µM (inactive).
In the case of `Cc1cccc(C(=O)NCCN2CCOCC2)c1[N+](=O)[O-]`, the IC50 (HEK293 [9]) is reported as > 89.1 µM (inactive), the EC50 (Insulin-degrading enzyme [10]) is reported as > 54.6 µM (inactive) and the EC50 (HEK293 [11]) is reported as > 54.6 µM (inactive). For the same compound, the EC50 (Insulin-degrading enzyme [12]) was > 54.6 µM (inactive).
With `O=C(c1ccccc1)N1CCN(c2cc(-c3ccccc3)nc3cc(-c4ccc(F)cc4)nn23)CC1` the EC50 [14] was 5.63 µM (active) and the EC50 [15] was 2.35 µM (active).
In the case of `CCOc1ccc(Nc2cc3n(c(=O)n2)CCc2cc(OC)c(OC)cc2-3)cc1`, the EC50 [16] is reported as > 112 µM (not active), the AC50 [17] is reported as 102 µM (active) and the EC50 [18] is reported as 12.5 µM (active).
